Data on three molecules can be found in US8492396B2, “Therapeutic uses of adrenergic α-1 receptor antagonists” (SANOFI, priority 2007, dated 2013).

Assay [1] concerns mice. Description: writhings evoked by intraperitoneal acetic acid in CYP-treated mice. The following applies: pre-treatment 30 μg/kg i.v., CYP 150 mg/kg i.p. In kind it is in vivo. The protocol:
Male Sprague-Dawley rats and Swiss mice were administered with CYP (150 mg/kg, i.p.) or its vehicle (0.9% NaCl) for cystitis induction. 48 hours later urinary bladders were removed and placed in an organ bath for motor response measurement. Writhing behaviors and plasma protein extravasation were investigated 90 min after the CYP administration.
On the technique in general: In writhing tests, fewer writhes than in controls are read as antinociception.

Assay [2] concerns strips of rat urinary bladder. Description: eNANC contractile response to electrical field stimulation in isolated urinary bladder strips from CYP-treated rats. In kind it is in vivo. The note with it: intravenous pretreatment 30 μg/kg; bladders taken 48 h after CYP 150 mg/kg i.p. As for the experimental part:
Male Sprague-Dawley rats and Swiss mice were administered with CYP (150 mg/kg, i.p.) or its vehicle (0.9% NaCl) for cystitis induction. 48 hours later urinary bladders were removed and placed in an organ bath for motor response measurement. Writhing behaviors and plasma protein extravasation were investigated 90 min after the CYP administration. Strips of rat urinary bladder were taken from terminally anesthetized animals and mounted in organ baths and after an equilibration period the eNANC contractile response to electrical field stimulation (EFS, 5 Hz, 1 ms width, 10 V) in the absence and presence of atropine (1 μM) is studied (Rigoni et al., 2003, Br J Pharmacol, 138, 977-85) The contraction produced by EFS in these experimental conditions is entirely mediated by SP and NKA released from terminals of primary sensory neurons. The eNANC response to EFS was reproducible at 60 min intervals. The effect of alfuzosin or its vehicle on the eNANC response to EFS was studied in parallel experiments. At the beginning or end of each experiment tissues were challenged with carbachol (1 μM). The effect of alfuzosin was studied also in bladder strips obtained from rats treated with cyclophosphamide. […]

The test system of assay [3] is urinary bladder taken from CYP-treated rats. Description: contractile response to capsaicin in urinary bladder taken from CYP-treated rats. It counts as in vivo, rat. The note with it: pretreatment with alfuzosin; bladders from CYP-treated rats. The protocol:
Male Sprague-Dawley rats and Swiss mice were administered with CYP (150 mg/kg, i.p.) or its vehicle (0.9% NaCl) for cystitis induction. 48 hours later urinary bladders were removed and placed in an organ bath for motor response measurement. Writhing behaviors and plasma protein extravasation were investigated 90 min after the CYP administration. […] The eNANC response to EFS was reproducible at 60 min intervals. The effect of alfuzosin or its vehicle on the eNANC response to EFS was studied in parallel experiments. At the beginning or end of each experiment tissues were challenged with carbachol (1 μM). The effect of alfuzosin was studied also in bladder strips obtained from rats treated with cyclophosphamide.

For assay [4], the system named is urinary bladder. Put plainly: CYP-evoked plasma protein extravasation (Evans blue) in urinary bladder. The following applies: CYP 150 mg/kg i.p., 90 min after CYP; ruthenium red 4 mg/kg s.c.; camphor 50 μmol/kg i.p. In kind it is in vivo. As for the experimental part: Male Sprague-Dawley rats and Swiss mice were administered with CYP (150 mg/kg, i.p.) or its vehicle (0.9% NaCl) for cystitis induction. 48 hours later urinary bladders were removed and placed in an organ bath for motor response measurement. Writhing behaviors and plasma protein extravasation were investigated 90 min after the CYP administration. Intraperitoneal administration of cyclophosphamide (150 mg/kg, 48 h before) is known to decrease bladder capacity and increased micturition frequency (Maggi et al., 1992, J Auton Nerv Syst, 38, 201-8). These effects of cyclophosphamide were abolished in rats pretreated with capsaicin as adults (Maggi et al., 1992, J Auton Nerv Syst, 38, 201-8). Thus, the inflammatory responses to cyclophosphamide are mediated by neurogenic inflammatory mechanisms. Evans blue dye was used to measure plasma extravasation. The proinflammatory stimulus was given immediately after the injection of the dye (30 mg/kg i.v. over 5 s) in the jugular vein. The chest was opened 10 min or at different time intervals as required after the injection of Evans blue and the animal perfused for 3 min with a phosphate buffer. The urinary bladder, urethra and prostate were removed, blotted and weighed. […] The amount of Evans blue extravasated from the […] was measured using a spectrophotometer and expressed as ng/mg of wet weight.

As for `COc1cc2nc(N(C)CCCNC(=O)C3CCCO3)nc(N)c2cc1OC` (centres unmarked) [alfuzosin], the “reduction of the CYP-induced increase in number of writhings evoked by acetic acid” value in assay [1] is 48 % of reduction. The “reversal of CYP-induced reduction of the contractile response to EFS (eNANC, in the presence of atropine)” value in assay [2] is > 50 % of reversal. Besides, the “reversal of CYP-induced reduction of the contractile response to capsaicin” value in assay [3] is ~50 % of reversal.

On to `N.N.N.N.N.N.N.N.N.N.N.N.N.N.[Cl-].[Cl-].[Cl-].[Cl-].[Cl-].[Cl-].[O-2].[O-2].[Ru+3].[Ru+3].[Ru+4]` [ruthenium red], for which the “CYP-evoked plasma protein extravasation in urinary bladder” value in assay [4] was “completely prevented”.

In the case of `CC12CCC(CC1=O)C2(C)C` (centres unmarked) [camphor], the “CYP-evoked plasma protein extravasation in urinary bladder” value in assay [4] is “completely prevented”.
